Experimental data taken from US20200150109A1, “MICROTUBULE-TARGETING DRUGS AS IMMUNE CHECKPOINT INHIBITORS AND METHODS OF SCREENING NOVEL IMMUNE CHECKPOINT INHIBITORS FOR THE TREATMENT OF CANCERS AND INFECTIOUS DISEASES” (INSERM (Institut National de la Santé et de la Recherche …, priority 2017, published 2020).
Entries after “also recorded” stand apart in the source; their conditions may differ.

Key:
PD-1 (CD279) = assay: Cell-based test of PD-1 cell surface expression by activated T lymphocytes (flow cytometry); set-up: species or system human; conditions: PBMC activated with CD3/CD28 beads + IL-2, 3 days, drugs at their optimum IC50 for proliferation (CPT, mitomycin C, aphidicolin 1 μM; triptolide, Lumi-colchicine 100 nM)
Description: Shown are means and standard deviations from more than ten independent experiments, using drugs at their respective optimum IC50 for proliferation.
(§1) PBMC isolated from healthy donors were activated with CD3/CD28 antibodies-coated beads (ThermoFisher) and IL-2 (100 IU/ml) in the presence of the specified concentration of the tested drug. In the example (FIG. 1), these drugs include CI-980 (so-called NSC 613862 or mivobulin) (10 nM, or 1 nM and 0.1 nM as indicated in Figures), Combretastatin-A4 (CBT-A4), (100 nM), Colchicine (100 nM), Indibulin (100 nM), Vincristine (1 μM), Vinblastine (1 μM), Vinflunine (1 μM), Vinorelbine (1 μM), Paclitaxel (1 μM), 13-Lumi(−)-Colchicine (100 nM), Camptothecin (CPT) (1 μM), Triptolide (100 nM), Mitomycin C (1 μM), Aphidicolin (1 μM). After 3 days of in vitro cell culture in complete medium at 37° C. in a humidified atmosphere containing 5% CO2, cells were immunostained for CD3 (BioLegend, clone UCHT1), CD4 (BioLegend, clone RPA-T4), CD8 (BioLegend, clone RPA-T8), CD69 (BioLegend, clone FN50), CD279 (BD Biosciences, clone EH12.1), LAG3 (BioLegend, clone 11C3C65), TIM3 (BioLegend, clone F38-2E2) and CTLA4 (BioLegend, clone BNI3) expression and then analysed for immune checkpoint expression by flow cytometry and gating on the indicated subsets of T or NK cells.

PD-1 protein = assay: Immunoblot of PD-1 protein in CD3+ T lymphocyte cell extracts; format: cell-based, human; conditions: CD3+ T lymphocytes cell extracts, treated or not with CI-980; 3 independent experiments
Description: CD3+T lymphocytes cell extracts, treated or not with CI-980, were analyzed by immunoblots.

PD-1 mRNA = assay: qRT-PCR of PD-1 mRNA from activated CD3+ T lymphocytes; format: cell-based, human; conditions: activated CD3+ T lymphocytes treated or not with CI-980; 3 independent experiments
LAG3 = assay: Immune checkpoint expression by activated T lymphocytes (flow cytometry), LAG3; format: cell-based, human; conditions: CD3+ T lymphocytes activated with anti-CD3/CD28 beads + IL-2; CI-980 10 nM; 3 days
Description: (§2) CD3+ T lymphocyes were activated with anti-CD3/CD28 antibodies-coated beads plus IL-2, in the presence or absence of CI-980 (10 nM), and immune checkpoint expression were assessed by flow cytometry 3 days later.
as §1

TIM3 = assay: Immune checkpoint expression by activated T lymphocytes (flow cytometry), TIM3; format: cell-based, human; conditions: CD3+ T lymphocytes activated with anti-CD3/CD28 beads + IL-2; CI-980 10 nM; 3 days
Description: as §2, §1

CTLA4 = assay: Immune checkpoint expression by activated T lymphocytes (flow cytometry), CTLA4; format: cell-based, human; conditions: CD3+ T lymphocytes activated with anti-CD3/CD28 beads + IL-2; CI-980 10 nM; 3 days
Description: as §2, §1

Karpas-299 = assay: Cytotoxicity assay, drug-treated activated PBMC against Karpas-299; format: cell-based, human; conditions: PBMC activated 3 days with CI-980 10 nM, rinsed, 4 hours with Karpas-299, 2:1 effector-to-target ratio
Description: (§3) PBMC isolated from healthy donors were activated with anti-CD3/CD28 antibodies-coated beads plus IL-2, in the presence or absence of CI-980 (10 nM). After 3 days, PBMC were rinsed and co-incubated for 4 hours with the PD-L1^+ cancer cell lines Karpas-299 or SU-DHL-1. Specific lysis of the target cell lines was then measured by staining of dying cells with propidium iodide (PI) and flow cytometry analysis.
(§4) PBMC isolated from healthy donors, used as effector cells, were activated with CD3/CD28 beads and IL-2, in presence or absence of CI-980 (10 nM). Human cancer cell lines-expressing PD-L1 karpas-299 and SU-DHL-1 were used as targets cells. Prior to be mixed with the effector cells, target cells were labelled with CellTrace-Violet (ThermoFisher) in order to distinguish them from the effector cells. After 3 days, effector cells were rinsed and combined with target cells at a 2:1 effector-to-target ratio. Cells were incubated during 4 hours at 37° C. and specific lysis were analysed by flow cytometry. The percentage of lysis was determined as percent of cells positive for both propidium iodide (PI) and CellTrace-Violet versus cells positive for CellTrace-Violet.

SU-DHL-1 = assay: Cytotoxicity assay, drug-treated activated PBMC against SU-DHL-1; format: cell-based, human; conditions: PBMC activated 3 days with CI-980 10 nM, rinsed, 4 hours with SU-DHL-1, 2:1 effector-to-target ratio
Description: as §3, §4

[1] = target: T1, PD-1 protein (programmed cell death protein 1, endogenous, from activated human CD3+ T lymphocytes) (human, UniProt Q15116 25-288); assay: co-immunoprecipitation with anti-α-tubulin antibody from activated human CD3+ T lymphocyte extract, immunoblot for PD-1
T1 construct: Endogenous PD-1 in a T lymphocyte cell extract, detected by Western blot with anti-PD-1 (ThermoFisher PA5-20350); also called CD279; PDCD1
T1 sequence (Q15116 25-288 limits assumed): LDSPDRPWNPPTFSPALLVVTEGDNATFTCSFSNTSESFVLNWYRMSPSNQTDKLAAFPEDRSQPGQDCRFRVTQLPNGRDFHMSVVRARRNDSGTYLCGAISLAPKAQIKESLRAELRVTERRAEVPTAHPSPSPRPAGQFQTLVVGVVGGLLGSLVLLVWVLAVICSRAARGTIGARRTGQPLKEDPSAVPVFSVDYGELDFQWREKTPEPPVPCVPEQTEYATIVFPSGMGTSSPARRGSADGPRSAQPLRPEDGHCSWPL
Description: FIG. 4: PD-1 protein is not associated with tubulin in T lymphocytes.
α-tubulin was immunoprecipitated from activated CD3+T lymphocytes isolated from human PBMC of healthy donors using an anti-α-tubulin antibody (Sigma-Aldrich, clone B-5-1-2). Immunoprecipitation control with an anti-PD-1 antibody (ebioscience, clone J116) was also carried out. Immunoprecipitates were subjected to SDS-PAGE, and the co-immunoprecipitated PD-1 was assessed by Western Blot using an anti-PD-1 antibody (ThermoFisher, # PA5-20350).

CC(C)[C@]12O[C@H]1[C@@H]1O[C@]13[C@]1(O[C@H]1C[C@H]1C4=C(CC[C@@]13C)C(=O)OC4)[C@@H]2O [triptolide]
PD-1 cell surface expression (PD-1 (CD279)): do not inhibit PD-1 expression; also recorded: do not impact PD-1 expression

CO[C@@]12[C@H](COC(N)=O)C3=C(C(=O)C(C)=C(N)C3=O)N1C[C@@H]1N[C@@H]12 [mitomycin C]
PD-1 cell surface expression (PD-1 (CD279)): do not inhibit PD-1 expression; also recorded: do not impact PD-1 expression

CCOC(=O)Nc1cc2c(c(N)n1)N=C(c1ccccc1)[C@H](C)N2 [CI-980]
expression of PD-1 protein (immunoblot) (PD-1 protein): inhibit expression of PD-1 protein
PD-1 mRNA level (qRT-PCR) (PD-1 mRNA): increase PD-1 mRNA level
expression of LAG3 (LAG3): inhibits
expression of TIM3 (TIM3): inhibits
expression of CTLA4 (CTLA4): inhibits
cytolytic activity (specific lysis of target cells, PI staining) (Karpas-299): enhance cytolytic activity of immune cells
cytolytic activity (specific lysis of target cells, PI staining) (SU-DHL-1): enhance cytolytic activity of immune cells

C[C@@]1(CO)[C@H](O)CC[C@@]2(C)[C@H]1CC[C@H]1C[C@@H]3C[C@@]12CC[C@]3(O)CO [aphidicolin]
PD-1 cell surface expression (PD-1 (CD279)): do not inhibit PD-1 expression; also recorded: do not impact PD-1 expression

COC1=C[C@@H]2C3=C([C@@H]2C1=O)[C@@H](NC(C)=O)CCc1cc(OC)c(OC)c(OC)c13 [beta-Lumi(−)-colchicine]
PD-1 cell surface expression (PD-1 (CD279)): does not affect PD-1 expression
PD-1 cell surface expression (PD-1 (CD279); listed as β-Lumi(−)-Colchicine): do not impact PD-1 expression

CC[C@@]1(O)C(=O)OCc2c1cc1n(c2=O)Cc2cc3ccccc3nc2-1 [camptothecin]
PD-1 cell surface expression (PD-1 (CD279)): do not inhibit PD-1 expression; also recorded: do not impact PD-1 expression

B1: tubulin (endogenous, immunoprecipitated with an anti-α-tubulin antibody from extracts of activated human CD3+ T lymphocytes) (other)
chain 1: MRECISIHVGQAGVQIGNACWELYCLEHGIQPDGQMPSDKTIGGGDDSFNTFFSETGAGKHVPRAVFVDLEPTVIDEVRTGTYRQLFHPEQLITGKEDAANNYARGHYTIGKEIIDLVLDRIRKLADQCTRLQGFLVFHSFGGGTGSGFTSLLMERLSVDYGKKSKLEFSIYPAPQVSTAVVEPYNSILTTHTTLEHSDCAFMVDNEAIYDICRRNLDIERPTYTNLNRLISQIVSSITASLRFDGALNVDLTEFQTNLVPYPRIHFPLATYAPVISAEKAYHEQLSVADITNACFEPANQMVKCDPGHGKYMACCLLYRGDVVPKDVNAAIATIKTKRTIQFVDWCPTGFKVGINYQPPTVVPGGDLAKVQRAVCMLSNTTAIAEAWARLDHKFDLMYAKRAFVHWYVGEGMEEGEFSEAREDMAALEKDYEEVGVDSVEGEGEEEGEEY
chain 2: MREIVHIQAGQCGNQIGAKFWEVISDEHGIDPTGTYHGDSDLQLDRISVYYNEATGGKYVPRAILVDLEPGTMDSVRSGPFGQIFRPDNFVFGQSGAGNNWAKGHYTEGAELVDSVLDVVRKEAESCDCLQGFQLTHSLGGGTGSGMGTLLISKIREEYPDRIMNTFSVVPSPKVSDTVVEPYNATLSVHQLVENTDETYCIDNEALYDICFRTLRLTTPTYGDLNHLVSGTMECVTTCLRFPGQLNADLRKLAVNMVPFPRLHFFMPGFAPLTSRGSQQYRALTVPDLTQQVFDAKNMMAACDPRHGRYLTVAAVFRGRMSMKEVDEQMLNVQNKNSSYFVEWIPNNVKTAVCDIPPRGLKMAVTFIGNSTAIQELFKRISEQFTAMFRRKAFLHWYTGEGMDEMEFTEAESNMNDLVSEYQQYQDATAEEEEDFGEEAEEEA
notes: Endogenous protein from a cell lysate; also called alpha-tubulin
binding result [1]: no binding
